Data as given in ChEMBL document CHEMBL1201862, “PubChem BioAssay data set” (2004).
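Protocol summary: plate cells (96-well), add compound at 5 concentrations, incubate 48 h, interpolate endpoints linearly. The concentration for 50% growth inhibition is given as GI50.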 Activity calls are given as the source filed them. No stated cut-off is given here; in the data, active = GI50 up to about 1.1 µM and inactive = higher.

Tests used:
Experiment in all cases: DTP human tumour cell line panel, 48 h
[1] = system: CAKI-1
[2] = system: OVCAR-4
[3] = system: MOLT-4
[4] = system: SF-295
[5] = system: SW-620
[6] = system: BT-549
[7] = system: A549
[8] = system: A498
[9] = system: COLO 205
[10] = system: HT-29
[11] = system: SF-539
[12] = system: SNB-19
[13] = system: UACC-62
[14] = system: MCF7
[15] = system: LOX IMVI
[16] = system: HOP-92
[17] = system: EKVX
[18] = system: SNB-75
[19] = system: MDA-MB-231
[20] = system: CCRF-CEM

Measured: GI50

CCC(O)c1ccc(/N=C/c2ccccc2O)cc1 (stereo not drawn)
inactive: [1] > 100 µM | [2] > 100 µM | [3] > 100 µM | [4] > 100 µM | [5] > 100 µM | [6] > 100 µM | [7] > 100 µM | [8] > 100 µM | [9] 49.9 µM | [10] > 100 µM | [11] > 100 µM | [12] > 100 µM | [13] > 100 µM | [14] > 100 µM | [15] > 100 µM | [16] > 100 µM | [17] > 100 µM | [18] > 100 µM | [19] > 100 µM

CCN1C(=O)C(=C/C=C/C=C2/N(C)c3ccccc3C2(C)C)C(=O)N(CC)C1=S
inactive: [1] > 100 µM | [2] 33 µM | [4] 61.5 µM | [5] > 100 µM | [6] 13.6 µM | [7] > 100 µM | [8] > 100 µM | [9] > 100 µM | [20] > 100 µM | [10] 55.6 µM | [11] 78.3 µM | [12] > 100 µM | [13] > 100 µM | [14] > 100 µM | [15] 21.5 µM | [16] > 100 µM | [17] > 100 µM | [18] > 100 µM | [19] > 100 µM

O=C1CCC2SC1CCC2=O
inactive: [1] > 100 µM | [2] > 100 µM | [3] > 100 µM | [4] > 100 µM | [5] > 100 µM | [6] > 100 µM | [7] > 100 µM | [8] > 100 µM | [9] > 100 µM | [20] > 100 µM | [10] > 100 µM | [11] > 100 µM | [12] > 100 µM | [14] > 100 µM | [15] > 100 µM | [16] > 100 µM | [17] > 100 µM | [18] > 100 µM | [19] > 100 µM

Nc1ncnc2c1ncn2C1OC(CO)C(O)C(O)C1O (stereo not drawn)
inactive: [1] > 100 µM | [2] > 100 µM | [3] > 100 µM | [4] > 100 µM | [5] > 100 µM | [6] > 100 µM | [7] > 100 µM | [8] > 100 µM | [9] > 100 µM | [20] > 100 µM | [10] > 100 µM | [11] > 100 µM | [12] > 100 µM | [14] > 100 µM | [15] > 100 µM | [16] > 100 µM | [17] > 100 µM | [18] > 100 µM | [19] > 100 µM

NC(CC(=O)Nc1cc(C(F)(F)F)ccc1Cl)=NO
inactive: [1] > 100 µM | [2] > 100 µM | [3] > 100 µM | [4] > 100 µM | [5] > 100 µM | [6] > 100 µM | [7] > 100 µM | [8] > 100 µM | [9] > 100 µM | [10] > 100 µM | [11] > 100 µM | [12] > 100 µM | [13] > 100 µM | [14] > 100 µM | [15] > 100 µM | [16] > 100 µM | [17] > 100 µM | [18] > 100 µM | [19] > 100 µM

CC1(C)CC2(C)CC1CC2NC(=O)CCN1CCOCC1 (stereo not drawn)
inactive: [1] > 100 µM | [2] > 100 µM | [3] > 100 µM | [4] > 100 µM | [5] > 100 µM | [6] > 100 µM | [7] > 100 µM | [8] > 100 µM | [9] > 100 µM | [20] > 100 µM | [10] > 100 µM | [11] > 100 µM | [12] > 100 µM | [13] > 100 µM | [14] > 100 µM | [16] > 100 µM | [17] > 100 µM | [18] > 100 µM | [19] > 100 µM

CCOC(=O)c1cc(=O)c2cccc3c2n1CCS3
inactive: [1] > 100 µM | [3] > 100 µM | [4] > 100 µM | [5] > 100 µM | [6] 42.9 µM | [7] > 100 µM | [8] 83.8 µM | [9] > 100 µM | [20] > 100 µM | [10] > 100 µM | [11] > 100 µM | [12] > 100 µM | [13] > 100 µM | [14] > 100 µM | [15] > 100 µM | [16] > 100 µM | [17] > 100 µM | [18] > 100 µM | [19] > 100 µM
